Results taken from paper PMC5350466 (mBio, 2017).
≈ marks a conversion by molar mass, not a printed value.

Key:
[1] = test system: ΔbcnA pbcnA; experiment: MIC by E test; format: cell-based, Burkholderia cenocepacia; details: 24 h
[2] = test system: ΔbcnA pbcnA1 (Pa); experiment: MIC by E test; format: cell-based, Burkholderia cenocepacia; details: 24 h
[3] = test system: ΔbcnA pbcnA2 (Pa); experiment: MIC by E test; format: cell-based, Burkholderia cenocepacia; details: 24 h
[4] = test system: ΔbcnA pbcnA3 (Pa); experiment: MIC by E test; format: cell-based, Burkholderia cenocepacia; details: 24 h
[5] = test system: ΔbcnA pbcnA (MTb); format: cell-based, Burkholderia cenocepacia
[6] = test system: BcnB; experiment: In vitro binding of Nile red to BcnB; set-up: species or system Burkholderia cenocepacia; details: 1.5 µM BcnB vs 1.5 µM BcnA
Procedure: In vitro binding assays were performed as previously described ([23]), with a few modifications. Purified BCNs were prepared in phosphate-buffered saline (PBS, pH 7.4). Phospholipids and Nile red were prepared in DMSO. […] All spectra were corrected for background fluorescence determined from probe-into-buffer titrations. Fluorescence was measured with a Cary Eclipse fluorescence spectrophotometer (Varian) set at an excitation wavelength (λex) specific for each probe, as follows: Nile red, 550 nm; BODIPY phospholipids, 500 nm for fatty acyl BODIPY-labeled phosphocholine and 505 nm for head group BODIPY-labeled phosphoethanolamine. The emission spectrum for each probe was collected across the following wavelengths (λem): Nile red, 590 to 750 nm; BODIPY phospholipids, 510 to 665 nm. The background-corrected binding fluorescence with each probe was fitted to a one-site binding model as previously described for human AGP ([23]). The equilibrium binding affinity constant for the probe-BCN complex (Kd), the probe concentration needed to achieve half-maximum binding at equilibrium, was determined by nonlinear least-squares regression analysis of the binding isotherms with GraphPad Prism v 5.0 software (GraphPad Software, Inc.).

[7] = biological target: Burkholderia cenocepacia BcnB (BCAL3310) (Burkholderia cenocepacia); experiment: SEC-MALS; proteins diluted to 1 mg/ml in 20 mM Tris (pH 7.5)-100 mM NaCl
[8] = biological target: Burkholderia cenocepacia BcnA (BCAL3311) (Burkholderia cenocepacia); experiment: other; competition with Nile red, PBS

Row | Molecule | MIC by Etest, ΔbcnA pbcnA [1] | MIC by Etest, ΔbcnA pbcnA1 (Pa) [2] | MIC by Etest, ΔbcnA pbcnA2 (Pa) [3] | MIC by Etest, ΔbcnA pbcnA3 (Pa) [4] | MIC by Etest, ΔbcnA pbcnA (MTb) [5] | other results
1 | CC(C)(O/N=C(\C(=O)N[C@@H]1C(=O)N2C(C(=O)[O-])=C(C[n+]3ccccc3)CS[C@H]12)c1csc(N)n1)C(=O)O [Ceftazidime, ceftazidime] | 8 µg/mL (≈ 14.6 µM) | 8 µg/mL (≈ 14.6 µM) | 8 µg/mL (≈ 14.6 µM) | 8 µg/mL (≈ 14.6 µM) | 8 µg/mL (≈ 14.6 µM) | 
2 | O=C(O)c1cn(C2CC2)c2cc(N3CCNCC3)c(F)cc2c1=O [Cipro, ciprofloxacin] | 4 µg/mL (≈ 12.1 µM) | 4 µg/mL (≈ 12.1 µM) | 4 µg/mL (≈ 12.1 µM) | 4 µg/mL (≈ 12.1 µM) | 4 µg/mL (≈ 12.1 µM) | 
3 | CCN(CC)c1ccc2nc3c4ccccc4c(=O)cc-3oc2c1 [Nile red] |  |  |  |  |  | affinity of BcnB binding to Nile red, fold lower than that of BcnA [6]: ~ 20 fold
4 | CO[C@H]1/C=C/O[C@@]2(C)Oc3c(C)c(O)c4c(O)c(c(/C=N/N5CCN(C)CC5)c(O)c4c3C2=O)NC(=O)/C(C)=C\C=C\[C@H](C)[C@H](O)[C@@H](C)[C@@H](O)[C@@H](C)[C@H](OC(C)=O)[C@@H]1C [Rifampicin, rifampin] | ≥ 64 µg/mL | ≥ 64 µg/mL | 32 µg/mL (≈ 38.9 µM) | ≥ 64 µg/mL | ≥ 64 µg/mL | 
5 | Burkholderia cenocepacia BcnB (BCAL3310) (natural protein) |  |  |  |  |  | stoichiometry N [7]: 2
6 | PmB nonapeptide |  |  |  |  |  | Ki [8]: 5080 µM
7 | polymyxin B |  |  |  |  |  | Ki [8]: 670 µM
